Test results: patent US9908895B2, “Tricyclic fused thiophene derivatives as JAK inhibitors” (Incyte Corporation, priority 2012, dated 2018)

System: human JAK1
Test: In vitro JAK kinase assay (HTRF), JAK1
Type: biochemical
Conditions: ratio of JAK2 IC50 to JAK1 IC50 at 1 mM ATP
Description: Compounds herein were tested for inhibitory activity of JAK targets according to the following in vitro assay described in Park et al., Analytical Biochemistry 1999, 269, 94-104. The catalytic domains of human JAK1 (a.a. 837-1142), JAK2 (a.a. 828-1132) and JAK3 (a.a. 781-1124) were expressed using baculovirus in insect cells and purified. The catalytic activity of JAK1, JAK2 or JAK3 was assayed by measuring the phosphorylation of a biotinylated peptide. The phosphorylated peptide was detected by homogenous time resolved fluorescence (HTRF). IC50s of compounds were measured for each kinase in the 40 μL reactions that contain the enzyme, ATP and 500 nM peptide in 50 mM Tris (pH 7.8) buffer with 100 mM NaCl, 5 mM DTT, and 0.1 mg/mL (0.01%) BSA. For the 1 mM IC50 measurements, ATP concentration in the reactions was 1 mM. Reactions were carried out at room temperature for 1 hour and then stopped with 20 μL 45 mM EDTA, 300 nM SA-APC, 6 nM Eu-Py20 in assay buffer (Perkin Elmer, Boston, Mass.). Binding to the Europium labeled antibody took place for 40 minutes and HTRF signal was measured on a PHERA star plate reader (BMG, Cary, N.C.). The Example compounds were each tested in the Example A assay (see Table 1 for data for the compounds of the examples as tested by the assay of Example A at 1 mM ATP).

| JAK2/JAK1 | SMILES |
| --- | --- |
| >10 | CC(C)c1nc2cnc3ccsc3c2n1[C@H]1CC[C@H](CC#N)CC1 [Example 27, [trans-4-(2-Isopropyl-1H-imidazo[4,5-d]thieno[3,2-b]pyridin-1-yl)cyclohexyl]acetonitrile] |
| >7 | N#CC[C@H]1CC[C@H](n2c(C3CNC3)nc3cnc4ccsc4c32)CC1 [Example 28, [trans-4-(2-Azetidin-3-yl-1H-imidazo[4,5-d]thieno[3,2-b]pyridin-1-yl)cyclohexyl]acetonitrile] |
| >9 | CN1CC(c2nc3cnc4ccsc4c3n2[C@H]2CC[C@H](CC#N)CC2)C1 [Example 29, {trans-4-[2-(1-Methylazetidin-3-yl)-1H-imidazo[4,5-d]thieno[3,2-b]pyridin-1-yl]cyclohexyl}acetonitrile] |
| >10 | C[C@@H](O)c1nc2cnc3ccsc3c2n1C1CCCC(CCC#N)C1 (stereo partly drawn) [Example 32, 3-(3-{2-[(1R)-1-Hydroxyethyl]-1H-imidazo[4,5-d]thieno[3,2-b]pyridin-1-yl}cyclohexyl)propanenitrile] |
| >7 | Cc1nc2cnc3ccsc3n2c1-c1ccc(CC#N)cc1 [Example 33, [4-(7-Methylimidazo[1,2-a]thieno[3,2-e]pyrazin-8-yl)phenyl]acetonitrile] |
| >10 | Cc1nc2cnc3ccsc3c2n1[C@H]1CC[C@H](CC#N)OC1 [Example 38, [(2R,5S)-5-(2-Methyl-1H-imidazo[4,5-d]thieno[3,2-b]pyridin-1-yl)tetrahydro-2H-pyran-2-yl]acetonitrile] |
| >10 | CCc1nc2cnc3ccsc3c2n1[C@H]1CC[C@H](CC#N)OC1 [Example 39, [(2R,5S)-5-(2-Ethyl-1H-imidazo[4,5-d]thieno[3,2-b]pyridin-1-yl)tetrahydro-2H-pyran-2-yl]acetonitrile] |
| >10 | CC(C)c1nc2cnc3ccsc3c2n1[C@H]1CC[C@H](CC#N)OC1 [Example 42, [(2R,5S)-5-(2-Isopropyl-1H-imidazo[4,5-d]thieno[3,2-b]pyridin-1-yl)tetrahydro-2H-pyran-2-yl]acetonitrile] |
| >10 | N#CC[C@H]1CC[C@H](n2c(C3CC3)nc3cnc4ccsc4c32)CO1 [Example 43, [(2R,5S)-5-(2-Cyclopropyl-1H-imidazo[4,5-d]thieno[3,2-b]pyridin-1-yl)tetrahydro-2H-pyran-2-yl]acetonitrile] |
| >10 | CCc1nc2cnc3ccsc3c2n1[C@H]1CC[C@H](CC#N)CC1 [Example 47, [trans-4-(2-Ethyl-1H-imidazo[4,5-d]thieno[3,2-b]pyridin-1-yl)cyclohexyl]acetonitrile] |
| >7 | Cc1nc2cnc3ccsc3c2n1[C@H]1CC[C@H](CC#N)CC1 [Example 48, [trans-4-(2-Methyl-1H-imidazo[4,5-d]thieno[3,2-b]pyridin-1-yl)cyclohexyl]acetonitrile] |
| >10 | C[C@@H](O)c1nc2cnc3ccsc3c2n1[C@H]1CC[C@@H](CC#N)C1.O=C(O)C(F)(F)F [Example 49, ((1R,3S)-3-{2-[(1R)-1-Hydroxyethyl]-1H-imidazo[4,5-d]thieno[3,2-b]pyridin-1-yl}cyclopentyl)acetonitrile trifluoroacetate] |
| >10 | CCOC(=O)N1CCC[C@H](n2c([C@@H](C)O)nc3cnc4ccsc4c32)C1 [Example 50, Ethyl(3S)-3-{2-[(1R)-1-hydroxyethyl]-1H-imidazo[4,5-d]thieno[3,2-b]pyridin-1-yl}piperidine-1-carboxylate] |
| >10 | C[C@@H](O)c1nc2cnc3ccsc3c2n1[C@H]1CCCN(C(=O)CC#N)C1.O=C(O)C(F)(F)F [Example 51, 3-((3S)-3-{2-[(1R)-1-Hydroxyethyl]-1H-imidazo[4,5-d]thieno[3,2-b]pyridin-1-yl}piperidin-1-yl)-3-oxopropanenitrile trifluoroacetate] |
| >10 | C[C@@H](O)c1nc2cnc3ccsc3c2n1[C@H]1CCCN(C(=O)CCC(F)(F)F)C1 [Example 52, (1R)-1-{1-[(3S)-1-(4,4,4-Trifluorobutanoyl)piperidin-3-yl]-1H-imidazo[4,5-d]thieno[3,2-b]pyridin-2-yl}ethanol] |
| >10 | C[C@@H](O)c1nc2cnc3ccsc3c2n1[C@H]1CCCN(C(=O)CCc2cn[nH]c2)C1 [Example 53, (1R)-1-(1-{(3S)-1-[3-(1H-Pyrazol-4-yl)propanoyl]piperidin-3-yl}-1H-imidazo[4,5-d]thieno[3,2-b]pyridin-2-yl)ethanol] |

| JAK2/JAK1 | SMILES |
| --- | --- |
| >10 | C[C@@H](O)c1nc2cnc3ccsc3c2n1[C@H]1CCCN(C(=O)CCc2cccnc2)C1 [Example 54, (1R)-1-{1-[(3S)-1-(3-Pyridin-3-ylpropanoyl)piperidin-3-yl]-1H-imidazo[4,5-d]thieno[3,2-b]pyridin-2-yl}ethanol] |
| >10 | CC(CC(=O)N1CCC[C@H](n2c([C@@H](C)O)nc3cnc4ccsc4c32)C1)c1ccccc1 (stereo partly drawn) [Example 55, (1R)-1-{1-[(3S)-1-(3-Phenylbutanoyl)piperidin-3-yl]-1H-imidazo[4,5-d]thieno[3,2-b]pyridin-2-yl}ethanol] |
| >10 | C[C@@H](O)c1nc2cnc3ccsc3c2n1[C@H]1CCCN(CCC#N)C1 [Example 56, 3-((3S)-3-{2-[(1R)-1-Hydroxyethyl]-1H-imidazo[4,5-d]thieno[3,2-b]pyridin-1-yl}piperidin-1-yl)propanenitrile] |
| >10 | C[C@@H](O)c1nc2cnc3ccsc3c2n1[C@H]1CCCN(C(=O)CCc2ccccc2)C1 [Example 57] |
| >10 | C[C@@H](O)c1nc2cnc3ccsc3c2n1[C@H]1CCCN(C(=O)CCC#N)C1 [Example 58, 4-((3S)-3-{2-[(1R)-1-Hydroxyethyl]-1H-imidazo[4,5-d]thieno[3,2-b]pyridin-1-yl}piperidin-1-yl)-4-oxobutanenitrile] |
| >10 | C[C@@H](O)c1nc2cnc3ccsc3c2n1[C@H]1CCCN(C(=O)CCCC#N)C1 [Example 59, 5-((3S)-3-{2-[(1R)-1-Hydroxyethyl]-1H-imidazo[4,5-d]thieno[3,2-b]pyridin-1-yl}piperidin-1-yl)-5-oxopentanenitrile] |
| >10 | C[C@@H](O)c1nc2cnc3ccsc3c2n1C1CCN(CCCC(F)(F)F)CC1 [Example 60, (1R)-1-{1-[1-(4,4,4-Trifluorobutyl)piperidin-4-yl]-1H-imidazo[4,5-d]thieno[3,2-b]pyridin-2-yl}ethanol] |
| >10 | C[C@@H](O)c1nc2cnc3ccsc3c2n1C1CCN(CC#N)CC1.O=C(O)C(F)(F)F [Example 61, (4-{2-[(1R)-1-Hydroxyethyl]-1H-imidazo[4,5-d]thieno[3,2-b]pyridin-1-yl}piperidin-1-yl)acetonitrile trifluoroacetate] |
| >10 | C[C@@H](O)c1nc2cnc3ccsc3c2n1[C@H]1CCN(CCC#N)C1 [Example 62, 3-((3S)-3-{2-[(1R)-1-Hydroxyethyl]-1H-imidazo[4,5-d]thieno[3,2-b]pyridin-1-yl}pyrrolidin-1-yl)propanenitrile] |
| >6 | C[C@@H](O)c1nc2cnc3ccsc3c2n1[C@H]1CCN(C(=O)CC#N)C1 [Example 63, 3-((3S)-3-{2-[(1R)-1-Hydroxyethyl]-1H-imidazo[4,5-d]thieno[3,2-b]pyridin-1-yl}pyrrolidin-1-yl)-3-oxopropanenitrile] |
| >10 | C[C@@H](O)c1nc2cnc3ccsc3c2n1[C@H]1CCN(CCCC(F)(F)F)C1 [Example 64, (1R)-1-{1-[(3S)-1-(4,4,4-Trifluorobutyl)pyrrolidin-3-yl]-1H-imidazo[4,5-d]thieno[3,2-b]pyridin-2-yl}ethanol] |
| >10 | C[C@@H](O)c1nc2cnc3ccsc3c2n1[C@H]1CCN(CCCC#N)C1 [Example 65, 4-((3S)-3-{2-[(1R)-1-Hydroxyethyl]-1H-imidazo[4,5-d]thieno[3,2-b]pyridin-1-yl}pyrrolidin-1-yl)butanenitrile] |
| >10 | C[C@@H](O)c1nc2cnc3ccsc3c2n1[C@H]1CCN(CCCCC#N)C1 [Example 66, 5-((3S)-3-{2-[(1R)-1-Hydroxyethyl]-1H-imidazo[4,5-d]thieno[3,2-b]pyridin-1-yl}pyrrolidin-1-yl)pentanenitrile] |
| >10 | C[C@@H](O)c1nc2cnc3ccsc3c2n1[C@H]1CC[C@H](CC#N)[C@H](N)C1 [Example 67, ((1R,2R,4S)-2-Amino-4-{2-[(1R)-1-hydroxyethyl]-1H-imidazo[4,5-d]thieno[3,2-b]pyridin-1-yl}cyclohexyl)acetonitrile] |
| >10 | CC(N)c1nc2cnc3ccsc3c2n1[C@H]1CC[C@H](CC#N)OC1.O=C(O)C(F)(F)F (stereo partly drawn) [Example 68, {(2R,5S)-5-[2-(1-Aminoethyl)-1H-imidazo[4,5-d]thieno[3,2-b]pyridin-1-yl]tetrahydro-2H-pyran-2-yl}acetonitrile trifluoroacetate] |

| SMILES | JAK2/JAK1 |
| --- | --- |
| C[C@@H](O)c1nc2cnc3ccsc3c2n1[C@@H]1CC[C@@H](CC#N)OC1 [Example 44, ((2S,5R)-5-{2-[(1R)-1-Hydroxyethyl]-1H-imidazo[4,5-d]thieno[3,2-b]pyridin-1-yl}tetrahydro-2H-pyran-2-yl)acetonitrile] | >10 |
| C[C@H](O)c1nc2cnc3ccsc3c2n1[C@H]1CC[C@H](CC#N)OC1 [Example 45, ((2R,5S)-5-{2-[(1S)-1-Hydroxyethyl]-1H-imidazo[4,5-d]thieno[3,2-b]pyridin-1-yl}tetrahydro-2H-pyran-2-yl)acetonitrile] | >10 |
